Source: patent publication US10004688B2, “Liposomal mupirocin” (priority 2014, dated 2018)
Converted amounts (≈) assume the structure as drawn.

Experiments:
serum protein = settings: cited from earlier work
[1] = Mupirocin solubility in buffers and solubilizer solutions; assay type: physicochemical
Method: Liposomes were prepared using the calcium acetate (CA) gradient method [Clerc S, Barenholz Y. 1995. Loading of amphipathic weak acids into liposomes in response to transmembrane calcium acetate gradients. Biochim Biophys Acta 1240:257-265]. Specifically, lipids in a mole ratio of 55:40:5 HSPC: cholesterol: mPEG DSPE were mechanically hydrated by stirring at 65° C. with 200 mM calcium acetate pH 5.5, at a weight ratio of 1:9. The liposomal dispersion was downsized by stepwise extrusion by the Northern Lipids (Burnaby, BC, Canada) extruder using polycarbonate filters starting with 3 times extrusion through a 400 nm pore size membrane, then 3 times through a 100 nm pore size membrane, and finally 10 times through a 50 nm pore size membrane. Liposomes were then dialyzed using a Cellu Sep regenerated cellulose membrane (Membrane Filtration Products, USA), against a 10% sucrose solution. In the case of HPCD-containing liposomes, lipids were hydrated by 200 mM calcium acetate pH 5.5 containing 15% (w/w) HPCD. Control HPCD liposomes were prepared by hydrating lipids with 15% (w/w) HPCD in phosphate buffer 200 mM pH 6.3. All other preparation steps (downsizing and dialysis) were the same as described above. Remote loading was performed by incubating at 65° C. for 10 min a solution of the drug with the liposome dispersion at a volume ratio of 1:1. Liposomes used for loading were freshly prepared and used within one week. Drug loading solutions were prepared in 200 mM phosphate buffer pH 6.3. High mupirocin concentrations in phosphate buffer pH 6.3 (28 mM) were achieved by vigorous stirring and 10 min sonication in a bath sonicator. Loading was also tested from 1 to 10% (w/w) HPCD solutions in phosphate buffer pH 6.3. High mupirocin concentration (28 mM) in 1% HPCD solution was achieved by vigorous stirring and sonication as described for phosphate buffer. Mupirocin solutions in higher HPCD concentrations (2.5-10%) were prepared by stirring only. Loading was also performed from propylene glycol (PG) and from polyethylene glycol (PEG) 400 solutions. In these cases, a stock solution of 100 mM mupirocin was prepared and diluted to the desired concentration with 200 mM phosphate buffer pH 6.3.
Mupirocin is not freely soluble in aqueous medium. Being a weak acid, its solubility increases with pH. Mupirocin was soluble in phosphate buffer 200 mM pH 6.3 up to a concentration of 15 mM. […] However, high concentrations (≥28 mM) in 1% HPCD required 10 min sonication in order to achieve a clear solution. It should be noted that the chromatographic profile of mupirocin in the different solutions tested was similar to that of a standard solution.

Neisseria gonorrhoeae = settings: cited from earlier work
[2] = system: Group A streptococcus (GAS); test: Mice necrotizing fasciitis model; assay type: in vivo, Female BALB/c mice
Method: Necrotizing fasciitis model was performed based on a published method [Hidalgo-grass, C. et al. Mechanisms of disease Effect of a bacterial pheromone peptide on host chemokine degradation in group A streptococcal necrotising soft-tissue infections. 363, (2004)]. Specifically the working protocol included:
Female BALB/c mice, 10 g weight and at the age of 3-4 weeks were selected.
1st Day: Bacteria were seeded on blood-agar plates and incubated at 37° C. THY medium was prepared, autoclaved and kept at room temperature.
2nd Day: plates were taken from the incubator and placed at room temperature.
4th Day: bacteria were transferred from the plates to 5 ml THY tube (warmed in the incubator).
5th Day: 2 ml bacteria were transferred from the 5 ml THY tube to 50 ml THY tube. Bacteria were grown to early logarithmic phase (O.D600=0.3-0.4), washed with PBS and suspended in PBS to O.D600=0.8 which correlates to 10^8 bacteria in injected volume of 100 μl. The obtained bacteria volume was divided to vials according to the number of mice in the study. Each dilution was seeded on blood agar plates and counting colonies on the day after.
On the 5th day, mice hair was removed from the center of mice back and bacteria were injected subcutaneously.
Disease condition was followed according to the Table 2A below.
Specifically, Group A streptococcus (GAS) injection (0.75×10^8 CFU) was administered to all study groups. The drug was administered by IV injection of 100 μl formulation. Eachliposomal mupirocin dose was 45 mg/kg. Each free mupirocin dose was 50 mg/kg.

[3] = system: gram-positive bacteria, including the methicillin-resistant Staphylococcus aureus (MRSA) and Streptococcus pneumoniae; settings: gram-positive bacteria incl. MRSA and Streptococcus pneumoniae; cited from earlier work
[4] = literature data, free mupirocin; cited from earlier work
[5] = group 2: free drug 50 mg/kg IV 3 h before and 3 and 24 h after GAS injection (150 mg/kg/day), 24 h after challenge
[6] = group 2: free drug 50 mg/kg IV 3 h before and 3 and 24 h after GAS injection (150 mg/kg/day), 48 h after challenge
[7] = group 2: free drug 50 mg/kg IV 3 h before and 3 and 24 h after GAS injection (150 mg/kg/day), 72 h after challenge
[8] = group 2: free drug 50 mg/kg IV 3 h before and 3 and 24 h after GAS injection (150 mg/kg/day), 96 h after challenge

Question: What does the source list for C/C(=C\C(=O)OCCCCCCCCC(=O)O)C[C@@H]1OC[C@H](C[C@@H]2O[C@H]2[C@@H](C)[C@H](C)O)[C@@H](O)[C@H]1O [Mupirocin, 9-[(E)-4-[(2S,3R,4R,5S)-3,4-dihydroxy-5-[[(2S,3S)-3-[(2S,3S)-3-hydroxybutan-2-yl]oxiran-2-yl]methyl]oxan-2-yl]-3-methylbut-2-enoyl]oxynonanoic acid]?
Answer: protein binding affinity (serum protein): 96.5%; solubility ([1]; HPCD solution in phosphate buffer, aqueous with cosolvent or surfactant or cyclodextrin, thermodynamic from solid, HPCD solutions of 1-10% w/w in phosphate buffer pH 6.3): > 34 mM; solubility ([1]; PEG 400, organic solvent or mixture): ~100 mM; solubility ([1]; aqueous buffer, thermodynamic from solid, phosphate buffer 200 mM pH 6.3, without vigorous stirring and sonication): ≤ 15 mM; solubility at 10 min ([1]; aqueous buffer, thermodynamic from solid, phosphate buffer pH 6.3, after vigorous stirring and sonication): ~28 mM (≈ 14 mg/mL); solubility ([1]; calcium acetate solution, aqueous buffer, calcium acetate 200 mM pH 5.5): < 2000 µg/mL; solubility ([1]; organic solvent or mixture, PG (propylene glycol)): ~100 mM; increase of solubility ([1]; pH 5.5): not more than 10 fold; MIC (Neisseria gonorrhoeae): 0.05 µg/mL (≈ 0.0999 µM); % weight change ([2]; group 2: free drug 50 mg/kg IV 3 h before and 3 and 24 h after GAS injection (150 mg/kg/day), 24 h after bacteria challenge): −7%; Average mice weight [2, 5]: 12.5 g; Description of mice movement [2, 5]: Regular; Eyes appearance [2, 5]: Open eyes; Hair appearance [2, 5]: Rough hair; Mice mortality [2, 5]: 0; Wound appearance [2, 5]: No wound; Average mice weight [2, 6]: 11.7 g; Description of mice movement [2, 6]: Regular; Eyes appearance [2, 6]: Open eyes; Hair appearance [2, 6]: Rough hair; Mice mortality [2, 6]: 0; Average mice weight [2, 7]: 12.3 g; Description of mice movement [2, 7]: Regular; Eyes appearance [2, 7]: Open eyes; Mice mortality [2, 7]: 0; Average mice weight [2, 8]: 12.7 g; Description of mice movement [2, 8]: Regular; Eyes appearance [2, 8]: Open eyes; Mice mortality [2, 8]: 0; mortality ([2]; mice, GAS s.c. challenge, IV treatment): did not show mortality; development of disease / symptoms ([2]; mice, GAS s.c. challenge, IV treatment, listed as free drug): developed the disease 24 h after bacteria challenge; development of disease / symptoms ([2]; mice, GAS s.c. challenge, IV treatment, listed as free mupirocin): developed the disease symptoms; activity in vitro [3]: active in vitro; elimination half-life [4]: 20 to 40 min
